According to patent US12559559B2, “Targeting Galectin-9 as a therapeutic strategy for T-cell exhaustion in T-cell acute lymphoblastic leukemia” (DANA-FARBER CANCER INSTITUTE, INC., priority 2019, dated 2026):
pIC50: −log10 of the molar value. Read-outs that look alike come from different tables or passages of the source.

Tests used:
Jurkat T-ALL cell line = assay: Cell proliferation assay (CellTiter-Glo cell viability), Jurkat; assay type: cell-based; settings: Homo sapiens, 168 h, 7 days, read-out: IC50, cell viability normalized to DMSO
Description: (§1) FIG. 16A-16E is a series of graphs showing inhibition of T-ALL proliferation by PI3K inhibitor is increased when combined with GSI. DND-41, HPB-ALL, KOPT-K1, Jurkat and Loucy T-ALL cell lines were treated with Buparlisib, GSI, Buparlisib with 1 μM of GSI or DMSO for 7 days. Dose response curves of cell viability normalized to DMSO are shown (datapoints are derived from 3 replicates each, error bars show standard deviation).
(§2) Buparlisib (Selleckchem) and GSI (Santa Cruz Biotechnology, Inc) were prepared in DMSO (Sigma-Aldrich). Cell proliferation assays were measured by CellTiter-Glo Luminescent Cell viability assay (Promega), after a period of seven days. IC50 values were calculated by fitting the dose-response curves to a three-parameter sigmoid dose-response model using GraphPad. Error bars reflect standard deviation.

DND-41 T-ALL cell line = assay: Cell proliferation assay (CellTiter-Glo cell viability), DND-41; assay type: cell-based; settings: DND41, 168 h, 7 days, read-out: IC50, cell viability normalized to DMSO
Description: as §1
(§3) The leukemia cell lines (all verified by STR profiling) DND-41, KOPT-K1, HPB-ALL, Loucy, MOLT-4, NALM-6, SEM, KG-1 and HL-60 were obtained from ATCC or DSMZ, and were cultured in RPMI 1640 with 10% of heat-inactivated fetal bovine serum, 1% penicillin/streptomycin (Invitrogen).
as §2

Loucy T-ALL cell line = assay: Cell proliferation assay (CellTiter-Glo cell viability), Loucy; assay type: cell-based; settings: 168 h, 7 days, read-out: IC50, cell viability normalized to DMSO
Description: as §1, §3, §2

KOPT-K1 T-ALL cell line = assay: Cell proliferation assay (CellTiter-Glo cell viability), KOPT-K1; assay type: cell-based; settings: Homo sapiens, KOPTK1, 168 h, 7 days, read-out: IC50, cell viability normalized to DMSO
Description: as §1, §3, §2

HPB-ALL T-ALL cell line = assay: Cell proliferation assay (CellTiter-Glo cell viability), HPB-ALL; assay type: cell-based; settings: Homo sapiens, HPBALL, 168 h, 7 days, read-out: IC50, cell viability normalized to DMSO
Description: as §1, §3, §2

Notch = assay: Single-cell RNA-seq of leukemic cells of ETP T-ALL patients before and after GSI treatment; assay type: in vivo, human; settings: scRNA-seq
Description: Banked blood or bone marrow samples from patients with relapsed/refractory ETP T-ALL (see Table 1) were used in this study. All patients provided informed consent and were enrolled on a phase I clinical trial (NCT01363817) with the γ-secretase inhibitor (GSI) BMS-906024, a Notch inhibitor. Ayala Pharmaceuticals is investigating AL101 (BMS-906024) in a Phase II open-label, single-arm, multicenter study in ACC patients harboring known NOTCH1-4 activating mutations (ACCURACY; NCT03691207). Normal donor blood was obtained from Research Blood Components, LLC; and mononuclear cells (PBMCs) were isolated using Ficoll-Paque PLUS from GE Healthcare.
Full-length single-cell RNA-seq libraries were prepared using the SMART-seq2 protocol (Picelli et al., 2014 Nat Protoc, 9(1):171-181). cDNA was fragmented using Nextera XT (Illumina) and amplified with indexed Nextera PCR primers. Products were quantified using a Bioanalyzer High Sensitivity DNA Kit. Pooled libraries were sequenced on a NextSeq 500 (Illumina) with an average sequencing depth of 0.5-1 million reads per cell.
Processing and quality filtering of scRNA-seq data was carried out using trimmomatic^21, STAR (Dobin et al., 2013 Bioinformatics, 29(1):15-21), HTSeq (Anders et al., 2015 Bioinformatics, 31(2):166-169) and RSEM (Li et al., 2011 BMC Bioinformatics, 12:323). Clustering of single-cell profiles and marker gene analyses were performed using PAGODA2 (Fan et al., 2016 Nature methods, 13(3):241-244), monocole2 (Trapnell et al., 2014 Nat Biotechnol, 32(4):381-386), SEURAT (Butler et al., 2018 Nature Biotechnology, 36(5):411-420) and RNA velocity (La et al., 2018 Nature, 560(7719):494-498). Single nucleotide variant and copy number analyses were performed with mutect2 (Cibulskis et al., 2013 Nat Biotechnol, 31(3):213-219), InferCNV (Patel et al., 2014 Science, 344(6190):1396-1401; Tirosh et al., 2016 Science, 352(6282):189-196) and CONICSmat (Muller et al., 2018 Bioinformatics, 34(18):3217-3219). Single-cell profiles were compared with cell types from ImmGen (Heng et al., 2008 Nat Immunol, 9[…] a log-likelihood model. Transcriptional regulon and signaling pathway activities were analyzed with SCENIC (Fernandez et al., 2016 Cell Syst, 3(5):491-495 e495) and PROGENy (Schubert et al., 2018 Nat Commun, 9(1):20). Further details of the analysis are set forth below.
In order to fully define ETP T-ALL heterogeneity on the single-cell level, a full-length transcriptome analysis of 5,077 malignant and normal immune cells (T-cells, B-cells and monocytes) was performed from bone marrow or blood from four healthy donors and five patients with relapsed/refractory ETP T-ALL, diagnosed by immunophenotyping for ETP T-ALL, all with NOTCH1 gain-of-function mutations. These patients were treated with the γ-secretase inhibitor (GSI), and pre- and post-treatment samples were processed for this study.
The effects of Notch inhibition were next explored. […] It was hypothesized that persistence of a stem-like population might be the reason for the limited effects of Notch inhibitors in patients with relapsed/refractory Notch-mutant T-ALL.

[1] = ETP T-ALL patients treated with GSI

| Compound | pIC50 (Jurkat T-ALL cell line; Buparlisib alone) | pIC50 (Jurkat T-ALL cell line; Buparlisib with 1 μM of GSI) | pIC50 (DND-41 T-ALL cell line; DND-41, Buparlisib alone) | pIC50 (DND-41 T-ALL cell line; DND-41, Buparlisib with 1 μM of GSI) | pIC50 (Loucy T-ALL cell line; Buparlisib alone) | pIC50 (Loucy T-ALL cell line; Buparlisib with 1 μM of GSI) | pIC50 (KOPT-K1 T-ALL cell line; KOPT-K1, Buparlisib alone) | pIC50 (KOPT-K1 T-ALL cell line; KOPT-K1, Buparlisib with 1 μM of GSI) | pIC50 (HPB-ALL T-ALL cell line; Buparlisib alone) | pIC50 (HPB-ALL T-ALL cell line; Buparlisib with 1 μM of GSI) | Cell cycle of leukemic cells upon treatment (Notch; [1]) | Notch target gene expression upon treatment (Notch; [1]) | Cycling stem-like root cells (root2) after treatment (Notch; ETP T-ALL patients) | Non-cycling root cells (root1) after treatment (Notch; ETP T-ALL patients) | Cells with high PI3K signaling activity compared to untreated cells (Notch; ETP T-ALL patients, PROGENy) |
| --- | --- | --- | --- | --- | --- | --- | --- | --- | --- | --- | --- | --- | --- | --- | --- |
| Nc1cc(C(F)(F)F)c(-c2cc(N3CCOCC3)nc(N3CCOCC3)n2)cn1 [Buparlisib] | 6.14 | 6.37 | 6.00 | 6.88 | 6.19 | 6.15 | 5.94 | 6.60 | 6.47 | 11.14 | – | – | – | – | – |
| CN1C(=O)[C@@H](NC(=O)[C@H](CCC(F)(F)F)[C@H](CCC(F)(F)F)C(N)=O)N=C(c2ccccc2)c2ccccc21 [GSI, BMS-906024] | – | – | – | – | – | – | – | – | – | – | Cell cycle arrest | downregulation of Notch target genes | abolishes the cycling stem-like root cells (root2) | persist in the face of treatment | enrichment of cells with high PI3K signaling activity |
